Experimental data reported in patent publication US20090082341A1 (SYNOSIA THERAPEUTICS, priority 2007, published 2009).
“Also recorded” adds a separate entry of the source.

Legend:
A2A receptors in the rat = biological target: T1, A2A receptors in the rat (Rattus norvegicus, UniProt P30543); test: Radioligand binding assay, rat A2A receptor; details: read-out: pKi, rat A2A receptor (converted)
T1 construct: made in house; host or cells: CHO cells, Semliki Forest virus expression system

[1] = biological target: A2A receptors in the monkey (Saimiri sp., UniProt A0A2K6V039); test: Radioligand binding assay, monkey A2A receptor (striatal tissue)
A2A receptors in the monkey, sequence (A0A2K6V039 entry or part of it): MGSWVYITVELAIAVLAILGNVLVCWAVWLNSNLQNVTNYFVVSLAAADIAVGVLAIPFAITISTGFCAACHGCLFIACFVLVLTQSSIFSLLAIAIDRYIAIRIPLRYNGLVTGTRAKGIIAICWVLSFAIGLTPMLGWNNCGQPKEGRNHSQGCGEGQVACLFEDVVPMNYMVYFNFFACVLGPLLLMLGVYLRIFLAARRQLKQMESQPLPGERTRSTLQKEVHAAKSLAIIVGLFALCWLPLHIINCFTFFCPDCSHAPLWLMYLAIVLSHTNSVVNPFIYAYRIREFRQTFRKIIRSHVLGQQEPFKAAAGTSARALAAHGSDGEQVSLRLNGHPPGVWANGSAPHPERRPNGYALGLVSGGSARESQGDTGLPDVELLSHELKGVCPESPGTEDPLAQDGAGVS

[2] = system: phosphodiesterase (IV) enzyme; test: Enzyme assay panel, phosphodiesterase (IV); assay type: biochemical; details: at 10 μM
Method: The IC50 values (concentration causing a half-maximal inhibition of control values), EC50 values (concentration causing a half-maximal stimulation of control values) and Hill coefficients (nH) were determined by non-linear regression analysis of the concentration-response curves using Hill equation curve fitting. See FIG. 33 for general procedures and FIG. 34-36 for experimental conditions for enzyme assays.
It was tested at several concentrations (for IC50 or EC50 value determination), and the data were compared with historical values determined at Cerep.

male Wistar rats [3] = test: APEC-induced hypolocomotion test; assay type: in vivo, rat
Method: APEC (2-[(2-aminoethylamino)carbonylethyl-phenyl-ethylamino]-5′-ethylcarboxamido-adenosine), an A2A receptor agonist, reduces spontaneous motor activity in a dose-dependent manner. APEC-induced hypolocomotion is attenuated by selective A2A receptor antagonists but not by selective A1 receptor antagonists.
Control animals received vehicle only or vehicle and APEC. The animals were placed in plexiglass test cages with arrays of photocells linked to a computer, and motor activity was recorded for 15 min. Data are mean±SEM based on 8 animals per group.
APEC (2-[(2-aminoethylamino)carbonylethyl-phenyl-ethylamino]-5′-ethylcarboxamidoadenosine) is an adenosine A2A receptor agonist which reduces spontaneous motor activity in a dose-dependent manner. APEC-induced hypolocomotion is attenuated by selective A2A receptor antagonists but not by selective A1 receptor antagonists (Marston H M et al. Pharmacological characterization of a simple behavioral response mediated selectively by central adenosine A1 receptors, using in vivo and in vitro techniques. J Pharm Exp Ther. 1998; 285:1023-1030.)
(§1) Male adult Wistar rats (HanBrl: Wist (SPF) RCC) weighing approximately 140-200 g were used. The animals were housed in groups of four in Macrolon Type 3 cages (810 cm^2) with sawdust bedding. Tap water and standard laboratory chow (Ratte Alleinfutter, extrudat No 3436; Provimikliba Kaiseraugst, Switzerland) were continuously available except during testing. The animal quarters were maintained on a 12:12 hr light-dark cycle with light onset at 6 a.m. Room temperature (21-23° C.) and humidity (55-65%) were kept constant. At the conclusion of testing, rats were euthanized by means of CO2 inhalation. […]
Locomotor activity was monitored with a Digiscan Animal Activity Monitoring system (Model RXYZCM Omnitech Electronics, Columbus, Ohio). […] Ten minutes after APEC administration, animals were then placed in the test cages where horizontal activity was recorded for 15 min. […]
Data was analyzed by Kruskal-Wallis ANOVA followed by Mann-Whitney U-test. […]

male Wistar rats [4] = test: Passive avoidance test, scopolamine-induced amnesia; assay type: in vivo, rat
Text: This test relies on training rodents to avoid an aversive event (electric shock) by curbing a normal behavior, and at specified intervals after training, testing the animals for retention of such learning.
Adult rats were trained in a step-down test to avoid foot shock by remaining on a plastic platform. […] Amnesia was induced by administering scopolamine subcutaneously (sc) given immediately post-training.
The protocol to generate FIG. 6 data are as follows: Adult rats (n=16/dose group) were trained to avoid foot shock by remaining on a plastic platform in a step-down test. […] Amnesia was induced by administration of scopolamine sc at 1 mg/kg immediately post-training. Retention, measured as the % of rats with correct responses, was assessed 2 h post-training.
as §1, with “WIST (SPF); RCC Füllinsdorf)” for “Wist (SPF) RCC)”, “94-113” for “140-200”, “a.m.” for “a.m. Room temperature (21-23° C.) and humidity (55-65%) were kept constant. At the conclusion of testing, rats were euthanized by means of CO2 inhalation.”
Two hours after the training and the post-training treatment, each rat was evaluated for retention of the passive avoidance response in the retention test. […]

[5] = po, 2 h before recording, APEC 0.01 mg/kg sc

T1 sequence (P30543 whole entry): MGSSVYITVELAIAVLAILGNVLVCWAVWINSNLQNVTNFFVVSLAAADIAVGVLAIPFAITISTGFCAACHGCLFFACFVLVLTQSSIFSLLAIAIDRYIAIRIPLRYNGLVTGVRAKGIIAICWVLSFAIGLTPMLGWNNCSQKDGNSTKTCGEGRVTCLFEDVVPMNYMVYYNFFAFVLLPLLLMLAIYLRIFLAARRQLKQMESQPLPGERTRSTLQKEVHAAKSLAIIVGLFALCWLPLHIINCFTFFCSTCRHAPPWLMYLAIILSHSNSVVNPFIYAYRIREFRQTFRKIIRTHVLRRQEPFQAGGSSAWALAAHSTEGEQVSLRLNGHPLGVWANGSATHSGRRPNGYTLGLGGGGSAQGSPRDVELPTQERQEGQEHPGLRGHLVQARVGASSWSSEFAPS

COc1ccc(N2CCOCC2)c2sc(NC(=O)N3CCC(C)(O)CC3)nc12 [4-hydroxy-4-methyl-piperidine-1-carboxylic acid (4-methoxy-7-morpholin-4-yl-benzothiazol-2-yl)-amide]
Ki (A2A receptors in the rat): 20 nM | pKi, monkey A2A receptor [1]: 7.9 | inhibition of phosphodiesterase (IV) enzyme [2]: 88% | effect on APEC-induced deficits in locomotor activity (male Wistar rats [3]; 0.3 to 10 mg/kg po, vs vehicle + APEC): significantly reduced | ID50, reversal of APEC-induced deficits in locomotor activity (male Wistar rats [3]; [5]): 0.5 mg/kg | ID90, reversal of APEC-induced deficits in locomotor activity (male Wistar rats [3]; [5]): 3.4 mg/kg | proportion of scopolamine-treated animals exhibiting passive avoidance retention (correct responses) (male Wistar rats [4]; 100 mg/kg po + scopolamine 1 mg/kg sc, 2 h post-training, scopolamine + vehicle 12.5%): 43.75% | reversal of the scopolamine-induced retention deficit (male Wistar rats [4]; 3, 10, 30 and 100 mg/kg po immediately post-training): dose-dependent and statistically significant at the highest dose tested (100 mg/kg po); also recorded: dose-dependent reversal
